Measurements: ChEMBL document CHEMBL3137667, “[Drug-induced liver injury; fourteenth updated edition of the bibliographic database of liver injuries and related drugs]” (Gastroenterol Clin Biol, 2004)
*1 amine or outer side, *2 acyl side, *3 side chain or, on linkers, in order; H or OH if unused. Where a SMILES comes first, the peptide text is derived from it. Bridges are numbered along the chain shown (N, C = ends). Roman numbers before positions name the chains, in order. [ ]: non-standard residue; d: D form. Actinocin(9to1) = Cc1c2oc3c(C)ccc(C(=O)[*:1])c3nc-2c(C(=O)[*:2])c(N)c1=O; NMeV = CN[C@H](C(=O)O)C(C)C; Sar = CNCC(=O)O

How the values were obtained:
[1] = Highest frequency of moderate liver toxicity observed during clinical trials, expressed as a percentage. [column '% BIOL' in source]; conditions: human
[2] = Highest frequency of acute liver toxicity observed during clinical trials, expressed as a percentage. [column '% AIGUE' in source]; conditions: human
[3] = Presence of at least one case with successful reintroduction. [column 'REINT' in source]; conditions: human
[4] = Comments (NB not yet translated). [column 'COMMENTAIRES' in source]; conditions: human
[5] = Times to onset, minimal and maximal, observed in the indexed observations. [column 'DELAI' in source]; conditions: human
[6] = Proposed mechanism(s) of liver damage. [column 'MEC' in source]; conditions: human
[7] = human, serum
[8] = human, serum; remark: listed apart in the source
[9] = human
[10] = human; remark: listed apart in the source
[11] = human; remark: listed apart in the source
[12] = human, serum, 4383 h
[13] = human; remark: listed apart in the source
[14] = human; remark: listed apart in the source
[15] = human; remark: listed apart in the source
[16] = human; remark: listed apart in the source
[17] = human; remark: listed apart in the source
[18] = human; remark: listed apart in the source
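For Hepatotoxicity (association with vascular disease) in this document: count of indexed literature references reporting vascular liver injury in humans, e.g. peliosis hepatitis, hepatic veno-occlusive disease or Budd-Chiari syndrome.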
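For Hepatotoxicity (benign tumour) in this document: value is a count of indexed literature references citing a benign tumour confirmed by histopathology.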
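For Hepatotoxicity (choleostasis) in this document: human cholestatic liver injury, shown by histopathology or by peak ALT or AST elevation over alkaline phosphatase ratio below 2, value counts indexed literature reports.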
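For Hepatotoxicity (chronic liver disease) in this document: chronic liver injury confirmed by histopathology or persistently raised serum aminotransferase activity beyond 6 months, value given as the count of indexed literature references.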
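For Hepatotoxicity (cirrhosis) in this document: value is a count of indexed literature references reporting cirrhosis confirmed by histopathology.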
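For Hepatotoxicity (cytolytic) in this document: human cytolytic liver injury, shown by histopathology or by a ratio above 5 of peak ALT or AST elevation to alkaline phosphatase elevation, value counts indexed references.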
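For Hepatotoxicity (granulomatous hepatitis) in this document: value is a count of indexed literature references reporting granulomatous liver disease confirmed by histopathology.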
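For Hepatotoxicity (malignant tumour) in this document: malignant tumour confirmed by histopathology, value gives the count of indexed literature references reporting it.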
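For Hepatotoxicity (severe hepatitis) in this document: human clinical data: severe hepatitis, meaning potentially life-threatening liver failure or clinically observed cases, the value counts how many indexed literature references report it.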
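For Hepatotoxicity (steatosis) in this document: steatosis confirmed by histopathology, value is the count of indexed references.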

Row | Compound | Hepatotoxicity (moderate) [1] [%] | Hepatotoxicity (acute) [2] [%] | Hepatotoxicity (successful reintroduction) [3] | Hepatotoxicity (comment) [4] | Hepatotoxicity (time to onset) [5] | Hepatotoxicity (mechanism) [6] | Hepatotoxicity (moderate) [7] | Hepatotoxicity (acute) [8] | Hepatotoxicity (cytolytic) [9] | Hepatotoxicity (choleostasis) [10] | Hepatotoxicity (severe hepatitis) [11] | Hepatotoxicity (chronic liver disease) [12] | Hepatotoxicity (cirrhosis) [13] | Hepatotoxicity (granulomatous hepatitis) [14] | Hepatotoxicity (association with vascular disease) [15] | Hepatotoxicity (steatosis) [16] | Hepatotoxicity (malignant tumour) [17] | Hepatotoxicity (benign tumour) [18] | further results
1 | CC(=O)OCC1=C(C(=O)O)N2C(=O)[C@@H](NC(=O)CSc3ccncc3)[C@H]2SC1 [CEPHAPIRIN] | 0 | 0 | yes | RC/CEFALOTINE | 1 week | Allergic | 0 | 1 | 0 | 1 | 0 | 0 | 0 | 0 | 0 | 0 | 0 | 0 | –
2 | CCCCOCC(CN1C(=O)N(CC(COCCCC)OC(N)=O)C(=O)C(CC)(c2ccccc2)C1=O)OC(N)=O (stereo not drawn) [DIFEBARBAMATE] | 0 | 0 | yes | AC_ANTI-N/-ML I/PAROXETINE | 8 days - 15 months | Allergic | 2 | 9 | 9 | 1 | 5 | 0 | 0 | 1 | 0 | 1 | 0 | 0 | –
3 | Nc1ccc(O)c(C(=O)O)c1 [MESALAMINE] | 21 | 1 | yes | CHOLANGITE RC/SULFASALAZINE AC_ANTI-N/-ML | 1 day - 1 year | Allergic | 14 | 12 | 5 | 3 | 1 | 1 | 0 | 1 | 0 | 0 | 0 | 0 | –
4 | O=C(OCC(O)CO)c1ccccc1Nc1ccnc2cc(Cl)ccc12 (stereo not drawn) [GLAFENINE] | – | – | yes | LITHIASE | 2 days - 8 months | – | 2 | 14 | – | – | – | 5 | 5 | – | 0 | 0 | 0 | 0 | Hepatotoxicity (moderate) ([1]; Liver): 0%; Hepatotoxicity (acute) ([2]; Liver): 0%; Hepatotoxicity (mechanism) ([6]; Liver): Allergic; Hepatotoxicity (cytolytic) ([9]; Liver): 12; Hepatotoxicity (choleostasis) ([10]; Liver): 2; Hepatotoxicity (severe hepatitis) ([11]; Liver): 7; Hepatotoxicity (granulomatous hepatitis) ([14]; Liver): 0
5 | NC1=NC(=O)C(c2ccccc2)O1 (stereo not drawn) [PEMOLINE] | 2 | 0.3 | yes | AC_ANTI-MF/-N AGGRAVATION_HEPATITE_AUTOIMMUNE | 3 days - 3 years | Allergic, Dose-dependant | 4 | 16 | 14 | 0 | 10 | 0 | 0 | 0 | 0 | 1 | 0 | 0 | –
6 | CCn1cc(C(=O)O)c(=O)c2cc(F)c(N3CCNCC3)cc21 [NORFLOXACIN] | – | – | yes | AC_ANTI-N | 1 day - 10 days | – | 15 | 9 | – | – | – | 0 | 0 | – | 0 | 0 | 0 | 0 | Hepatotoxicity (moderate) ([1]; Liver): 7.7%; Hepatotoxicity (acute) ([2]; Liver): 0%; Hepatotoxicity (mechanism) ([6]; Liver): Allergic; Hepatotoxicity (cytolytic) ([9]; Liver): 3; Hepatotoxicity (choleostasis) ([10]; Liver): 6; Hepatotoxicity (severe hepatitis) ([11]; Liver): 0; Hepatotoxicity (granulomatous hepatitis) ([14]; Liver): 0
7 | Cc1c2oc3c(C)ccc(C(=O)N[C@@H]4C(=O)N[C@H](C(C)C)C(=O)N5CCC[C@H]5C(=O)N(C)CC(=O)N(C)[C@@H](C(C)C)C(=O)O[C@@H]4C)c3nc-2c(C(=O)N[C@@H]2C(=O)N[C@H](C(C)C)C(=O)N3CCC[C@H]3C(=O)N(C)CC(=O)N(C)[C@@H](C(C)C)C(=O)O[C@@H]2C)c(N)c1=O [DACTINOMYCIN] (I: T[dV]P[Sar][NMeV] / II: T[dV]P[Sar][NMeV]; ester I:1-I:C, II:1-II:C; linker I:N-II:N via Actinocin(9to1)) | 12 | 8.8 | yes | I/RADIOTHERAPIE HNR | 3 weeks - 2 months | Dose-dependant | 8 | 7 | 5 | 0 | 6 | 1 | 0 | 0 | 16 | 0 | 0 | 1 | –
8 | O=C(O)CCCCCCNC1c2ccccc2CCc2ccccc21 [AMINEPTINE] | 0.6 | 0 | yes | RC/CLOMIPRAMINE | 1 day - 10 months | Allergic, Reactive metabolite | 6 | 20 | 17 | 18 | 0 | 0 | 1 | 0 | 0 | 5 | 0 | 0 | –
9 | O=C(O)c1cccs1 [THIOPHENE CARBOXYLIC ACID] | 0 | 0 | yes | AC_ANTI-ML | 3 days - 3 weeks | Allergic | 0 | 3 | 3 | 0 | 0 | 0 | 0 | 0 | 0 | 0 | 0 | 0 | –
10 | C#C[C@]1(O)CC[C@H]2[C@@H]3CCC4=Cc5oncc5C[C@]4(C)[C@H]3CC[C@@]21C [DANAZOL] | 42.1 | 9.4 | yes | HNF | 3 days - 20 years | Dose-dependant | 32 | 13 | 6 | 8 | 2 | 0 | 0 | 0 | 2 | 0 | 5 | 12 | –
11 | C[C@](N)(Cc1ccc(O)c(O)c1)C(=O)O [METHYLDOPA] | 35 | 1.3 | yes | AC_ANTI-N/-ML/-MF RC/ALLOPURINOL | 3 days - 12 years | Allergic, Toxic | 10 | 24 | 16 | 10 | 13 | 27 | 7 | 8 | 0 | 3 | 1 | 0 | –
